Source: ChEMBL document CHEMBL1129801, “3-Benzyloxy-2-phenylpiperidine NK1 antagonists: the influence of alpha methyl substitution” (Bioorg Med Chem Lett, 1997)

Legend:
[1] = target: Substance-P receptor (Rattus norvegicus, UniProt P14600); test: […]; assay type: functional, microsomes, Liver, Microsome
[2] = Compound was tested in vivo for the ability to antagonise extravasation induced by the administration.; assay type: functional; details: read-out: ID50 (the source's name)
[3] = Compound was tested in vivo for the ability to antagonise extravasation induced by the administration; assay type: functional
[4] = (§1) Compound was tested in vivo for the ability to antagonise extravasation induced by the administration at 1 mg/kg po.; assay type: functional
[5] = as §1; assay type: functional; remark: listed apart in the source

Sequence of Substance-P receptor (P14600 whole entry): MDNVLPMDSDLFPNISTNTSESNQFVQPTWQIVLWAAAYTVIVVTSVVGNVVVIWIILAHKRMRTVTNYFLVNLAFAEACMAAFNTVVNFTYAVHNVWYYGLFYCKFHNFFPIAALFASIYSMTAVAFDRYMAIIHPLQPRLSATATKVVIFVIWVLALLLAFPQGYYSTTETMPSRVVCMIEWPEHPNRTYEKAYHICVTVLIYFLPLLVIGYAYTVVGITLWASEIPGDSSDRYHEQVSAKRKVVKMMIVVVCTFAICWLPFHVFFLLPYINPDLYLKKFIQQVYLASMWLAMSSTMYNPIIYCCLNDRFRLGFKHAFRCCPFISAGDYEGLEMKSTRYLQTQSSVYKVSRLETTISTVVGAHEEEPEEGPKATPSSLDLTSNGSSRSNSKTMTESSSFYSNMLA

IC50 [1] | SMILES | further results
160 nM | c1ccc(CO[C@H]2CCCN[C@H]2c2ccccc2)cc1 | 
0.09 nM | C[C@@H](O[C@H]1CCCN(Cc2n[nH]c(O)n2)[C@H]1c1ccccc1)c1cc(Cl)cc(Cl)c1 | ED50 [2]: > 0.1 mg/kg
0.16 nM | C[C@@H](O[C@H]1CCCN(Cc2nc[nH]n2)[C@H]1c1ccccc1)c1cc(C(F)(F)F)cc(C(F)(F)F)c1 | Inhibition [3]: 12%; ED50 [2]: 0.06 mg/kg; inhibition in vivo at 1 mg/kg [4]: 78%
0.15 nM | C[C@@H](O[C@H]1CCCN[C@H]1c1ccccc1)c1cc(C(F)(F)F)cc(C(F)(F)F)c1 | 
0.91 nM | C[C@@H](O[C@H]1CCCN[C@H]1c1ccccc1)c1cc(Cl)cc(Cl)c1 | 
86 nM | C[C@@H](O[C@H]1CCCN[C@H]1c1ccccc1)c1ccccc1 | 
> 10000 nM | C[C@H](O[C@H]1CCCN[C@H]1c1ccccc1)c1ccccc1 | 
0.8 nM | FC(F)(F)c1cc(CO[C@H]2CCCN[C@H]2c2ccccc2)cc(C(F)(F)F)c1 | 
87 nM | C[C@H](O[C@H]1CCCN[C@H]1c1ccccc1)c1cc(C(F)(F)F)cc(C(F)(F)F)c1 | 
5.9 nM | C[C@@H](O[C@H]1CCCN(Cc2n[nH]c(=O)[nH]2)[C@H]1c1ccccc1)c1ccccc1 | 
85 nM | C[C@H](O[C@H]1CCCN[C@H]1c1ccccc1)c1cc(Cl)cc(Cl)c1 | 
25 nM | C[C@H](O[C@H]1CCCN(Cc2n[nH]c(O)n2)[C@H]1c1ccccc1)c1cc(Cl)cc(Cl)c1 | 
0.16 nM | C[C@@H](O[C@H]1CCCN(Cc2n[nH]c(O)n2)[C@H]1c1ccccc1)c1cc(C(F)(F)F)cc(C(F)(F)F)c1 | inhibition in vivo at 1 mg/kg [5]: 66%; ED50 [2]: 0.026 mg/kg; inhibition in vivo at 1 mg/kg [4]: 97%
0.18 nM | FC(F)(F)c1cc(CO[C@H]2CCCN(Cc3nc[nH]n3)[C@H]2c2ccccc2)cc(C(F)(F)F)c1 | Inhibition [3]: 0%; ED50 [2]: 0.034 mg/kg; inhibition in vivo at 1 mg/kg [4]: 55%
